Experimental data from patent US20160067212A1, “USE OF INSULIN SIGNALING ANTAGONISTS, OPTIONALLY IN COMBINATION OF TRANSFECTION OF NON-BETA CELLS, FOR INDUCING INSULIN PRODUCTION” (UNIVERSITE DE GENEVE, priority 2013, published 2016).
Entries after “also recorded” stand apart in the source; their conditions may differ. Bridges are numbered along the chain shown (N, C = ends). Where no end group is shown, it is not given here.

Assays:
insulin receptor = biological target: T1, insulin receptor (Rattus norvegicus, UniProt P15127); details: Vikram and Jena, 2010; cited from earlier work
T1 construct: host or cells: rats, in vivo (endogenous receptor)

[1] = Peripheral action of S961 administered in vivo (glycemia); design: species or system mice; details: data not shown
Method: (§1) DT (Sigma) was administrated by intra-peritoneal (i.p.) injections as previously described (Thorel et al., 2010, supra). DOX (1 mg/ml; Sigma) was added to the drinking water. S961 (Novo-Nordisk) (Vikram and Jena, 2010, Biochem Biophys Res Commun. 398(2):260-5) was injected intravenously (i.v.) twice a day at 200-nmol/kg-body weight, for 4 consecutive days. PPP (Santa-Cruz) and Wortmannin (Sigma) were injected i.p. once a day for 5 consecutive days at 10-mg/kg-body weight and 1-mg/kg-body weight, respectively. Mice received subcutaneous insulin pellets (Linbit) one week apart, if glycaemia exceeded 25 mM.
To test whether insulin deprivation in absence of β-cell loss can prime α-cells to insulin production, adult mice in which α-cells express Pdx1 (cPdx1OE) were treated with an insulin receptor antagonist, termed S961 (Novo Nordisk), to blunt insulin signaling in peripheral tissues as well as in pancreatic islets (FIG. 7A).
A 5-day treatment to healthy adult mice having a normal β-cell mass led to insulin production in some 18% of Pdx1-expressing α-cells (FIG. 7B). […] Next, the insulin receptor was conditionally inactivated in adult α-cells to assess whether local inhibition of insulin signaling, exclusively at the level of α-cells, is sufficient to prime those cells to insulin production. […]

Pdx1-expressing α-cells = test: Insulin production in Pdx1-expressing α-cells of adult mice with normal β-cell mass after in vivo inhibition of insulin signaling; details: in vivo administration to mice expressing Pdx1 in α-cells; FIG. 7B
Method: as §1
Pancreatic glucagon and insulin dosages (immunoassays), gene expression analyses by real time PCR as well as histological and morphometric analyses were performed as described (Herrera et al, 1991, Development. 113(4):1257-65; Strom et al, 2007, Development. 134(15):2719-25).
Cryostat sections were 10 μm-thick. The antibodies used were: rabbit and guinea pig anti-Pdx1 (kind gift of C. Wright, 1/5000 and 1/750 respectively), guinea pig anti-porcine insulin (DAKO, 1/400), mouse anti-porcine glucagon (1/1000), mouse anti-somatostatin (BCBC Ab1985, 1/200), rabbit anti-GFP (Molecular Probes, 1/400), rabbit anti-Cpeptide1 (BCBC Ab1044, 1/500), rabbit anti-Cpeptide2 (BCBC Ab1042, 1/500). […]

T1 sequence (P15127 27-759 limits assumed): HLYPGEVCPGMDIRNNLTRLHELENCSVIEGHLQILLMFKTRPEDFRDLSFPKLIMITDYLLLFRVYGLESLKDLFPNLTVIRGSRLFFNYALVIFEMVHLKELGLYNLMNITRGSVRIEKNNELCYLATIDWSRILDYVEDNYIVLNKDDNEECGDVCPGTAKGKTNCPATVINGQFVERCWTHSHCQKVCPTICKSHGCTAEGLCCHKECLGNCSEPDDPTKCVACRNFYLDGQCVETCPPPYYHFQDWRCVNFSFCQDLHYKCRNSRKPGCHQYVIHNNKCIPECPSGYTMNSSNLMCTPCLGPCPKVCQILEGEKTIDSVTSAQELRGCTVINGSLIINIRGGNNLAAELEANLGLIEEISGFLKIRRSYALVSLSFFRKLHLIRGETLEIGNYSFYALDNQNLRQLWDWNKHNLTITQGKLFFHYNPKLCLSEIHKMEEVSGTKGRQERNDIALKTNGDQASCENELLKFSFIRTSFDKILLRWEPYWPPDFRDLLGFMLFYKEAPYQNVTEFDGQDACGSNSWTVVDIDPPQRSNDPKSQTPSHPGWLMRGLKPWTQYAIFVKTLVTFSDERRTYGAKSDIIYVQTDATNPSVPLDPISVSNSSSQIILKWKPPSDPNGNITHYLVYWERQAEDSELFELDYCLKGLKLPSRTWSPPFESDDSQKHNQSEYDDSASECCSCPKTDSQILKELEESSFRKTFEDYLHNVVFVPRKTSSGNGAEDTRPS
T1 sequence (P15127 764-1383 partner limits assumed): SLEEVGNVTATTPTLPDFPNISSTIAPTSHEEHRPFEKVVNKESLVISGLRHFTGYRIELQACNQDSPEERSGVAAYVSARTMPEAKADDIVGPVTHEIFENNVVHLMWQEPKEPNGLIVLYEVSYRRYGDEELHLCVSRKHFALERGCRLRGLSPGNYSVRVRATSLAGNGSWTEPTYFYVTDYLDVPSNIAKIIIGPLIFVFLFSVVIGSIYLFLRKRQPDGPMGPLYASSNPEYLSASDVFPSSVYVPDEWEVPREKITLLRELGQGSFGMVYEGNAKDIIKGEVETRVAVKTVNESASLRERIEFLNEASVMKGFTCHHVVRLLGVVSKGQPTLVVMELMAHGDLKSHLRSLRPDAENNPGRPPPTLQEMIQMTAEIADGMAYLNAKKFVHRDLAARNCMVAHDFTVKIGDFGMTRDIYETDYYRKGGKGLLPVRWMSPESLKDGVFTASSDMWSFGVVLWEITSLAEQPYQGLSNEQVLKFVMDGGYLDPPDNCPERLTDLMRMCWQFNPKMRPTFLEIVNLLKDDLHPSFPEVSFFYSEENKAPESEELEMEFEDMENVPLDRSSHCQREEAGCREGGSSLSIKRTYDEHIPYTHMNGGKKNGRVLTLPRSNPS

Row | Compound | effects of S961 in rats (insulin receptor) | effect on glycemia when administered in vivo [1] | insulin production triggered in Pdx1-expressing α-cells (in words) (Pdx1-expressing α-cells)
1 | GSLDESFYDWFERQLGGGSGGSSLEEEWAQIQCEVWGRGCPSY (disulfide 33-40) [S961] | hyperglycemia, hyperinsulinemia, insulin-resistance and depletion of energy stores | induces hyperglycemia | 
2 | COC[C@H]1OC(=O)c2coc3c2[C@@]1(C)C1=C(C3=O)[C@@H]2CCC(=O)[C@@]2(C)C[C@H]1OC(C)=O [wortmannin] |  |  | triggers insulin production with similar efficiency; also recorded: produce insulin
